Data: patent US20060165732A1, “Fungal antigens and eosinophil activity” (priority 2002, published 2006)

Legend:
[1] = tested on: Human peripheral blood eosinophils; experiment: IL-8 production by eosinophils (ELISA); type: cell-based; conditions: 0.01 μg/mL, 24 hours
Experimental: Human peripheral blood eosinophils can produce and release proinflammtory cytokines including IL-8. Eosinophils were incubated with 50 μg/mL or 100 μg/mL of Alternaria, or with 0.01 μg/mL IL-5, and the amount of IL-8 was measured. Purified eosinophils (1 mL at 1×10^6 cells/mL) were cultured in RPMI 1640 medium supplemented with 10% BCS in the presence of Alternaria or IL-5 using 48-well tissue culture plates (Costar, Cambridge, Mass.). After incubating the eosinophils with Alternaria or IL-5 for 24 hours at 37° C. in an atmosphere of 5% CO2, cell free supernatants were collected and frozen at −20° C. The concentrations of IL-8 in the supernatants were measured using an ELISA kit (Quantikine IL-8 Immunoassay Kit, R&D Systems, Minneapolis, Minn.). The threshold sensitivity of the kit was 4 pg/mL.

[2] = tested on: eosinophils; experiment: Intracellular calcium [Ca^2+]i in eosinophils (indo-1, flow cytometer); type: cell-based, human; conditions: 100 μg/mL extract or 10 ng/mL IL-5, 37° C.
Experimental: Real time changes in cytosolic free Ca^2+ (intracellular Ca^2+ concentration ([Ca^2+]i)) were measured in a flow cytometer using the fluorescent calcium indicator indo-1 (Rabinovitch et al., 1986, J. Immunol., 137:952; Grynkiewicz et al., 1985, J. Biol Chem., 260:3440). Indicator was introduced into cells by incubating 1 mL of eosinophils at a concentration of 1 to 2×10^6 cells/mL with 3 μM indo-1/AM (Molecular Probes, Eugene, Oreg.) in phenol red-free RPMI 1640 medium supplemented with 10% alpha calf serum and 10 mM HEPES for 30 minutes at 37° C. After washing, cells were suspended in RPMI with 0.1% HSA and 10 mM HEPES at 1×10^6 cells/mL. To measure [Ca^2+]i, cells were stimulated with 100 μg/mL Alternaria culture extract or 10 ng/mL IL-5, and fluorescence was analyzed by a FACS analyzer equipped with an ion-argon laser (Becton Dickinson). [Ca^2+]i was monitored on the basis of the ratio of the fluorescence of the calcium-bound indo-1 emission (401 nm) and the free indo-1 emission (475 nm). In addition, the [Ca^2+] in the medium can be manipulated to determine the effect on [Ca^2+]i.

[3] = tested on: Human eosinophils; experiment: Eosinophil degranulation measured by EDN release (RIA); type: cell-based
Experimental: The ability to induce eosinophilic degranulation was measured by EDN release. Human eosinophils were isolated from normal volunteers and volunteers reporting past allergies, hay fever, and/or asthma by Percoll density gradient centrifugation and magnetic cell sorting using MACS anti-CD16 microbeads as described by Hansel et al. (1991, J. Immunol. Methods, 145:105). Briefly, after peripheral blood was overlaid on an isotonic Percoll solution (1.084 g/ml; Sigma), the blood was centrifuged at 1000×g for 30 minutes at 4° C. Mononuclear cells at the interface were removed, and erythrocytes in the sediment were lysed by two cycles of hypotonic water lysis. Isolated granulocytes were washed twice with PIPES buffer (25 mM PIPES, 50 mM NaCl, 5 mM KCl, 25 mM NaOH, 5.4 mM glucose, pH 7.4) containing 1% bovine calf serum (Hyclone Laboratories; Logan, Utah). Cells were then incubated with an equal volume of anti-CD16-conjugated magnetic beads (Miltenyi Biotec, Auburn, Calif.) for 30 minutes at 4° C. with occasional gentle mixing. After 30 minutes of incubation on ice, cells were loaded onto a separation column positioned in the strong magnetic field of the MACS. Cells were eluted three times with 5 mL of PIPES buffer containing 1% bovine calf serum. The purity of eosinophils, as counted by Randolph's stain, was regularly >98%. Purified eosinophils were used immediately for experiments.
To monitor eosinophil degranulation, 200 μL of freshly isolated eosinophils were resuspended in HBSS with 25 mM HEPES and 0.01% gelatin at 5×10^5 cells/mL and incubated with the a particular fungal extract. […] To quantitate eosinophil degranulation, the concentration of one of the eosinophil granule proteins in the sample supernatants, EDN, was measured by specific RIA, as described previously (Horie & Kita, 1994, J. Immunol., 152:5457). […] Total cellular EDN was measured in parallel supernatants from cells lysed with Nonidet P-40 detergent (Sigma Chemical Co.). […]

IL-5: cytokine used as reference stimulus of eosinophil degranulation
IL-8 production from eosinophils [1]: very little IL-8
change in [Ca^2+]i [2]: no elevation of [Ca^2+]i
EDN release ([3]; 10 ng/mL): 52.1±6.5 ng EDN/10^6 cells
EDN release, eosinophils from allergy patients versus normal individuals ([3]; 100 μg/mL Alternaria culture extracts or 10 ng/mL IL-5): no difference
EDN release at 4° C. ([3]; incubation at 4° C. for 3 hours): abrogated EDN release
